Assays:
[1] = system: amyloid precursor protein (APP); conditions: cited from earlier work
Aβ42 = conditions: WO 01/78721 A1; cited from earlier work
COX-2 [2] = target: T1, COX-2 (Homo sapiens, UniProt P35354); assay: inhibition of COX-2 (isozyme of the eicosanoid metabolism); assay type: biochemical
T1 construct: LPS-stimulated Mono Mac 6-cells (COX-2); endogenous in cells; host or cells: LPS-stimulated Mono Mac 6 cells
T1 sequence (P35354 18-604): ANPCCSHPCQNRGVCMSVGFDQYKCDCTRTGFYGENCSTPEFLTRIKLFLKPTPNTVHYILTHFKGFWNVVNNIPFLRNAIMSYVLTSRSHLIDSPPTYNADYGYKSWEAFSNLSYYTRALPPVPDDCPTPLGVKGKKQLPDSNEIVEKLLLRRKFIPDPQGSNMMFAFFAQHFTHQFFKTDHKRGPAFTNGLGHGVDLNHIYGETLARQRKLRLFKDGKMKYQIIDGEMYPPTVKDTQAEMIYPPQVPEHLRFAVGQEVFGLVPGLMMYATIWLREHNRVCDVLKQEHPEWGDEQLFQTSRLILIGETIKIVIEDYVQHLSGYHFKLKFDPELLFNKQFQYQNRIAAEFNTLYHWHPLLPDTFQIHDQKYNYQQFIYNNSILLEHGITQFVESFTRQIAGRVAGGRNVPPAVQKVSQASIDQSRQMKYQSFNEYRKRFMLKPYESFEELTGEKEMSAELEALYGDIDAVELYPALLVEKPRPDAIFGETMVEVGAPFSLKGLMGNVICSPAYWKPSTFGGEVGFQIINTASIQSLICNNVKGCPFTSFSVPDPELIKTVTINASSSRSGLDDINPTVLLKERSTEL

COX-2 [3] = target: T1, COX-2; assay: inhibition of eicosanoid formation in LPS-stimulated Mono Mac 6-cells (COX-2); assay type: cell-based; conditions: FIG. 7
plasma half-life = conditions: in vivo
[4] = Pruss et al. 1989; cited from earlier work
[5] = cited from earlier work
COX-1 [6] = target: T2, COX-1 (Homo sapiens, UniProt P23219); assay: inhibition of COX-1 (isozyme of the eicosanoid metabolism); assay type: biochemical; parameters: eicosanoid formation in HEL cells (COX-1); endogenous in cells; host or cells: HEL cells
T2 sequence (P23219 24-599): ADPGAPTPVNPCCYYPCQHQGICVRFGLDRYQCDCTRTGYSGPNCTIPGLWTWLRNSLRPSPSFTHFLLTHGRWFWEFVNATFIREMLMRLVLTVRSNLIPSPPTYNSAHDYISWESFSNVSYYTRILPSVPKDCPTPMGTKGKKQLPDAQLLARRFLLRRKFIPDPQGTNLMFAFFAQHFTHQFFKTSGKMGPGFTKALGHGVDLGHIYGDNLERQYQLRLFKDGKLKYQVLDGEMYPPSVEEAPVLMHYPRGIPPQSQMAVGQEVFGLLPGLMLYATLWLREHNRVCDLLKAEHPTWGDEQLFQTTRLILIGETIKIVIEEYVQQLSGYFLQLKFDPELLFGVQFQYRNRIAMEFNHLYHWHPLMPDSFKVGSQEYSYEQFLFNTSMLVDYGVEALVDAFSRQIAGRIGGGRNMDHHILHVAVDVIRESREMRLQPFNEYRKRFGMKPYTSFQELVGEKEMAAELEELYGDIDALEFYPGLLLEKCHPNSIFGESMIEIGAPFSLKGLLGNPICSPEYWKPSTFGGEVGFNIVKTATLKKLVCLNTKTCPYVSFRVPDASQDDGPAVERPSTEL

COX-1 [7] = target: T2, COX-1; assay: inhibition of eicosanoid formation in HEL cells (COX-1); assay type: cell-based; parameters: eicosanoid formation in HEL cells (COX-1); endogenous in cells; host or cells: HEL cells; conditions: FIG. 7

CC(C)Cc1ccc(C(C)C(=O)O)cc1 (stereo not shown) [Ibuprofen]
portion of the amyloid β-42 peptide [1]: lowered | portion of the non-amyloidogenic soluble APP [1]: increased

Cc1cc(NC(=O)C2=C(O)c3ccccc3S(=O)(=O)N2C)no1 [isoxicam]
influence on the expression of Aβ42 (Aβ42): do not influence the expression of Aβ42 and even increase the expression thereof, respectively

CN1C(C(=O)Nc2ccccn2)=C(O)c2sc(Cl)cc2S1(=O)=O [lornoxicam]
inhibition of COX-2 (COX-2 [2]): inhibits | inhibition of the eicosanoid formation (COX-2 [3]): inhibition | plasma half-life (plasma half-life): short | crossing the blood-brain barrier [4]: not capable of crossing the blood-brain barrier | severe undesired events reported ([5]; in one million of prescriptions): less than 10 | gastro-intestinal and other tolerance ([5]; in vivo): good | side-effects found during observation of usage ([5]; in vivo): below 0.05% | inhibition of COX-1 (COX-1 [6]): inhibits | inhibition of the eicosanoid formation (COX-1 [7]): inhibition

CN1C(C(=O)Nc2ccccn2)=C(O)c2ccccc2S1(=O)=O [peroxicam]
influence on the expression of Aβ42 (Aβ42): do not influence the expression of Aβ42 and even increase the expression thereof, respectively

From patent publication US8129370B2, “Use of oxicam compounds” (Dritte PatentPortfolio Beteiligungsgesellschaft MBH & Co. KG, priority 2003, dated 2012)
